In patent US10294202B2, “Pyrrolidinones as herbicides” (FMC Corporation, priority 2013, dated 2019):

Key:
[1] = system: pigweed; assay: Test D pre-/postemergence herbicide test; format: in vivo, Amaranthus retroflexus; conditions: for Plant response rating: Postemergence, Pigweed, scale 0 to 100; for Plant response rating, Pigweed: Preemergence, scale 0 to 100 (0 no effect, 100 complete control)
From the text: (§1) Seeds of plant species selected from bluegrass (annual bluegrass, Poa annua), blackgrass (Alopecurus myosuroides), canarygrass (littleseed canarygrass, Phalaris minor), chickweed (common chickweed, Stellaria media), galium (catchweed bedstraw, Galium aparine), bromegrass, downy (downy bromegrass, Bromus tectorum), field poppy (Papaver rhoeas), field violet (Viola arvensis), foxtail, green (green foxtail, Setaria viridis), deadnettle (henbit deadnettle, Lamium amplexicaule), ryegrass, Italian (Italian ryegrass, Lolium multiflorum), kochia (Kochia scoparia), lambsquarters (Chenopodium album), oilseed rape (Brassica napus), pigweed (Amaranthus retroflexus), chamomile (scentless chamomile, Matricaria inodora), Russian thistle (Salsola kali), speedwell (bird's-eye speedwell, Veronica persica), barley, spring (spring barley, Hordeum vulgare), wheat, spring (spring wheat, Triticum aestivum), buckwheat, wild (wild buckwheat, Polygonum convolvulus), mustard, wild (wild mustard, Sinapis arvensis), oat, wild (wild oat, Avena fatua), radish, wild (wild radish, Raphanus raphanistrum), […]), barley, winter (winter barley, Hordeum vulgare), and wheat, winter (winter wheat, Triticum aestivum) were planted into a silt loam soil and treated preemergence with test chemicals formulated in a non-phytotoxic solvent mixture which included a surfactant. At the same time, these species were planted in pots containing Redi-Earth® planting medium (Scotts Company, 14111 Scottslawn Road, Marysville, Ohio 43041) comprising spaghnum peat moss, vermiculite, wetting agent and starter nutrients and treated with postemergence applications of the test chemicals formulated in the same manner. Plants ranged in height from 2 to 18 cm (1- to 4-leaf stage). Treated plants and controls were maintained in a controlled growth environment for 7 to 21 days after which time all species were compared to controls and visually evaluated. Plant response ratings, summarized in Table D, are based on a scale of 0 to 100 where 0 is no effect and 100 is complete control. A dash (-) response means no test result.

[2] = system: oilseed rape; assay: Test D pre-/postemergence herbicide test; format: in vivo, Brassica napus; conditions: for Plant response rating: Postemergence, Oilseed Rape, scale 0 to 100; for Plant response rating, Oilseed Rape: Preemergence, scale 0 to 100 (0 no effect, 100 complete control)
From the text: as §1

[3] = system: pigweed, palmer; assay: Test E preemergence herbicide test; format: in vivo, Amaranthus palmeri; parameters: key: 0 = no effect, 100 = complete control
From the text: Seeds of plant species selected from corn (Zea mays), soybean (Glycine max), velvetleaf (Abutilon theophrasti), lambsquarters (Chenopodium album), wild poinsettia (Euphorbia heterophylla), pigweed, palmer (palmer pigweed, Amaranthus palmeri), waterhemp (common waterhemp, Amaranthus rudis), surinam grass (Brachiaria decumbens), crabgrass, large (large crabgrass, Digitaria sanguinalis), crabgrass, Brazil (Brazilian crabgrass, Digitaria horizontalis), panicum, fall (fall panicum, Panicum dichotomiflorum), foxtail, giant (giant foxtail, Setaria faberii), foxtail, green (green foxtail, Setaria viridis), goosegrass (Eleusine indica), johnsongrass (Sorghum halepense), ragweed (common ragweed, Ambrosia elatior), barnyardgrass (Echinochloa crus-galli), sandbur (southern sandbur, Cenchrus echinatus), arrowleaf […] rhombifolia), ryegrass, Italian (Italian ryegrass, Lolium multiflorum), dayflower, VA (Virginia dayflower, Commelina virginica), field bindweed (Convolvulus arvensis), morningglory (Ipomoea coccinea), nightshade (eastern black nightshade, Solanum ptycanthum), kochia (Kochia scoparia), nutsedge, yellow (yellow nutsedge, Cyperus esculentus), cocklebur (common cocklebur, Xanthium strumarium), smartweed (ladysthumb smartweed, Polygonum Persicaria) and beggarticks (hairy beggarticks, Bidens pilosa), were planted into a silt loam soil and treated preemergence with test chemicals formulated in a non-phytotoxic solvent mixture which included a surfactant. Treated plants and controls were maintained in a greenhouse for 21 days, after which time all species were compared to controls and visually evaluated. Plant response ratings, summarized in Table E, are based on a scale of 0 to 100 where 0 is no effect and 100 is complete control. A dash (-) response means no test result.

SMILES	Plant response rating ([1]; 31 g ai/ha)	Plant response rating ([1]; 62 g ai/ha)	Plant response rating ([1]; 125 g ai/ha)	Plant response rating ([1]; 250 g ai/ha)	Plant response rating, Pigweed ([1]; 62 g ai/ha)	Plant response rating, Pigweed ([1]; 125 g ai/ha)	Plant response rating, Pigweed ([1]; 31 g ai/ha)	Plant response rating, Pigweed ([1]; 250 g ai/ha)	Plant response rating ([2]; 31 g ai/ha)	Plant response rating ([2]; 62 g ai/ha)	Plant response rating ([2]; 125 g ai/ha)	Plant response rating ([2]; 250 g ai/ha)	Plant response rating, Oilseed Rape ([2]; 62 g ai/ha)	Plant response rating, Oilseed Rape ([2]; 125 g ai/ha)	Plant response rating, Oilseed Rape ([2]; 31 g ai/ha)	Plant response rating, Oilseed Rape ([2]; 250 g ai/ha)	Plant response rating, Pigweed, Palmer ([3]; 31 g ai/ha)	Plant response rating, Pigweed, Palmer ([3]; 62 g ai/ha)	Plant response rating, Pigweed, Palmer ([3]; 125 g ai/ha)	Plant response rating, Pigweed, Palmer ([3]; 250 g ai/ha)	further results
O=C1NCC(c2ccc(F)c(F)c2)C1C(=O)Nc1ccccc1C(F)(F)F (racemic) [Compound 6]	10	10	20	20	0	0	0	0	10	10	15	20	0	10	0	20					Plant response rating ([1]; 16 g ai/ha): 0; Plant response rating, Pigweed ([1]; 16 g ai/ha): 0; Plant response rating ([2]; 16 g ai/ha): 10; Plant response rating, Oilseed Rape ([2]; 16 g ai/ha): 0
O=C1NCC(c2ccc(F)c(C(F)(F)F)c2)C1C(=O)Nc1cccc(F)c1F (racemic) [Compound 77]					70	80	25	80					5	5	5	5					
O=C1NCC(c2ccc(C(F)(F)F)cc2)C1C(=O)Nc1cccc(F)c1F (racemic) [Compound 202]	75	75	75	80	80	90	75	90	60	70	60	55	35	45	0	75	0	70	85	80	
O=C1NCC(c2ccc(OC(F)F)cc2)C1C(=O)Nc1cccc(F)c1F (racemic) [Compound 350]																	0	0	35	35	
O=C1NCC(c2cc(F)c(F)cc2F)C1C(=O)Nc1cccc(F)c1F (centres unmarked) [Compound 50]	0	0	10		25	5	10		5	5	5		0	0	0						Plant response rating ([1]; 16 g ai/ha): 5; Plant response rating, Pigweed ([1]; 16 g ai/ha): 10; Plant response rating ([2]; 16 g ai/ha): 5; Plant response rating, Oilseed Rape ([2]; 16 g ai/ha): 0
O=C1NCC(c2ccc(C(F)(F)F)cc2)C1C(=O)Nc1cccc(F)c1F (centres unmarked) [Compound 80, N-(2,3-difluorophenyl)-2-oxo-4-[4-(trifluoromethyl)phenyl]-3-pyrrolidinecarboxamide]	40	70	70	75	10	20	5	45	30	50	45	60	10	10	0	30	0		65	90	Plant response rating, Pigweed, Palmer ([3]; 16 g ai/ha): 0
O=C1NC[C@H](c2cccc(C(F)(F)F)c2)[C@H]1C(=O)Nc1ccccc1F [Compound 204, (3R,4S)—N-(2-fluorophenyl)-2-oxo-4-[3-(trifluoromethyl)phenyl]-3-pyrrolidinecarboxamide]					5	35	0	35					0	0	0	0	0	0	0	0	
O=C1NCC(c2ccc(C(F)(F)F)cc2)C1C(=O)Nc1ccccc1F (centres unmarked) [Compound 231]	20	35	35	45	50	60	50	80	15	10	20	40	0	45	0	55					
